Measured values published in patent US12655130B2 (ASSEMBLY BIOSCIENCES, INC., priority 2020, dated 2026).
Read-outs that look alike come from different tables or passages of the source.

System: HBV viral load (viral production from HepAD38 cells)
Assay: Activity of test compounds on viral production from HepAD38 cells (viral load by qPCR of HBV core sequence)
Type: cell-based
Details: viral load lowering, 5 days, qPCR of supernatant, read-out: VL HepAD38 EC50 range
Procedure: Assay Measuring Activity of Test Compounds on Viral Production from HepAD38 Cells
HepAD38 cells grown in a T-150 flask (Corning, cat #: 430825) with Growth Medium (DMEM/F12 (1:1) (Hyclone, cat #: SH30023.02), 1× Pen/Strep (Invitrogen, cat #: 15140-122), 10% FBS (Tissue Culture Biologics, cat #: 101), 250 μg/mL G418 (Alfa Aesar, cat #: J62671), 1 μg/mL Tetracycline (Teknova, cat #: T3320)) were detached with 0.25% trypsin-EDTA (Invitrogen, cat #: 25200-056). Tetracycline-free treatment medium (15 mL DMEM/F12 (1:1) 1× Pen/step, with 2% FBS, Tet-system approved (Clontech, cat #: 631106) were then added to mix, transferred into a 50 ml conical tube (Falcon, cat #: 21008-918) and spun at 1300 rpm for 5 min. Pelleted cells were then re-suspended/washed with 50 mL of 1×DPBS (Invitrogen, cat #: 14190-136) 2 times and 50 mL treatment medium twice. HepAD38 cells were then re-suspended with 10 mL of treatment medium, syringed and counted. Wells of 96-well clear bottom TC plate (Corning, cat #: 3904) were seeded at 50,000 cells/well in 180 μL of treatment medium, and 20 μL of either 10% DMSO (Sigma, cat #: D4540) as controls or a 10× solution of test compounds in 10% DMSO in treatment media was added for a final compound concentration starting at 10 μM, and plates were incubated in 5% CO2 incubator at 37° C. for 5 days.
Subsequently viral load production was assayed by quantitative PCR (qPCR) of the HBV core sequence. PCR reaction mixture containing forward primers HBV-f 5′-CTGTGCCTTGGGTGGCITT-3′ (IDT DNA), Reverse primers HBV-r 5′-[…]-3′ (IDT DNA), Fluorescent TaqMan™ Probes HBV-probe 5′-FAM/AGCTCCAAA/ZENMITCTITATAAGGGTCGATGTC/3IABkFQ-3′ (IDT DNA), 10 μL/well of PerfeCTa® qPCR ToughMix® (Quanta Biosciences, Cat #: 95114-05K), and 6 μL/well of DEPC water (Alfa Aesar, cat #: J62087) was prepared. Four μL of supernatant was added to 16 μL of the reaction mixture in a qPCR plate (Applied Biosytems, Cat #: 4309849), sealed with a film (Applied Biosystems, Cat #: 4311971), centrifuged for a few seconds, and subsequently run on an Applied Biosystems VIIA7. The PCR mixture was incubated at 45° C. for 5 min, then 95° C. for 10 min, followed by 40 cycles of 10 seconds at 95° C. and 20 seconds at 60° C. Viral load was quantified against known HBV DNA standards by using ViiA™ 7 Software. Viral load in the supernatant from wells with treated cells were compared against viral load in supernatant from DMSO control wells (3 per plate). Cell viability assay was performed with CellTiter-Glo Luminescent Cell Viability Assay (Promega, cat #: G7573) with modification. Mixed appropriate amount of CellTiter-Glo (CTG) 1×DPBS in a 1:1 ratio, added 100 uL of the mixture to each well followed completely removal of all supernatant in each well without touching cell surface. Incubated the plate at room temperature for 10 min on an orbital shaker, and then read the plate with a plate reader (TECAN M1000 or Envision). EC50 or CC50 values were calculated through curve-fitting of the four-parameter nonlinear-logistic-regression model (GraphPad Prism or Dotmatics). CC50 values were all >10 μM.

[1] = Hepatitis B virus, HePAD38, 120 h

| Compound | EC50 [1] | EC50 |
| --- | --- | --- |
| Cn1cnc(C2CC3CC(=O)CC3C2)c1C(=O)Nc1ccc(F)c(Cl)c1 (single isomer, unassigned) [Example 1, N-(3-Chloro-4-fluorophenyl)-1-methyl-4-(5-oxooctahydropentalen-2-yl)-1H-imidazole-5-carboxamide] | < 10 nM |  |
| Cn1cnc(C2CC3CC(O)CC3C2)c1C(=O)Nc1ccc(F)c(Cl)c1 (single isomer, unassigned) [Example 2, N-(3-Chloro-4-fluorophenyl)-4-(5-hydroxyoctahydropentalen-2-yl)-1-methyl-1H-imidazole-5-carboxamide] | < 10 nM |  |
| Cn1cnc(C2CC3CC(O)(CS(C)(=O)=O)CC3C2)c1C(=O)Nc1ccc(F)c(Cl)c1 (single isomer, unassigned) [Example 3, N-(3-Chloro-4-fluorophenyl)-4-(5-hydroxy-5-((methylsulfonyl)methyl)octahydropentalen-2-yl)-1-methyl-1H-imidazole-5-carboxamide] | < 10 nM |  |
| Cn1cnc(C2(O)CC3CC(c4ncn(C)c4C(=O)Nc4ccc(F)c(Cl)c4)CC3C2)c1 (single isomer, unassigned) [Example 4, N-(3-Chloro-4-fluorophenyl)-4-(5-hydroxy-5-(1-methyl-1H-imidazol-4-yl)octahydropentalen-2-yl)-1-methyl-1H-imidazole-5-carboxamide] | < 10 nM |  |
| Cn1ccnc1C1(O)CC2CC(c3ncn(C)c3C(=O)Nc3ccc(F)c(Cl)c3)CC2C1 (single isomer, unassigned) [Example 5, N-(3-Chloro-4-fluorophenyl)-4-(5-hydroxy-5-(1-methyl-1H-imidazol-2-yl)octahydropentalen-2-yl)-1-methyl-1H-imidazole-5-carboxamide] | < 10 nM |  |
| Cn1cnc(C2CC3CC(O)(CO)CC3C2)c1C(=O)Nc1ccc(F)c(Cl)c1 (single isomer, unassigned) [Example 19, N-(3-Chloro-4-fluorophenyl)-4-(5-hydroxy-5-(hydroxymethyl)octahydro-pentalen-2-yl)-1-methyl-1H-imidazole-5-carboxamide] | < 10 nM |  |
| Cn1cnc(C2CC3CC(O)(CO)CC3C2)c1C(=O)Nc1ccc(F)c(Cl)c1 (single isomer, unassigned) [Example 20, N-(3-Chloro-4-fluorophenyl)-4-(5-hydroxy-5-(hydroxymethyl)octahydro-pentalen-2-yl)-1-methyl-1H-imidazole-5-carboxamide] |  | < 10 nM |
| Cc1nc(C2CC3CC(O)(c4nccn4C)CC3C2)c(C(=O)Nc2ccc(F)c(Cl)c2)n1C (single isomer, unassigned) [Example 27, N-(3-Chloro-4-fluorophenyl)-4-(5-hydroxy-5-(1-methyl-1H-imidazol-2-yl)octahydropentalen-2-yl)-1,2-dimethyl-1H-imidazole-5-carboxamide] | < 10 nM |  |
| O=C(Nc1ccc(F)c(Cl)c1)c1c(C2CC3CC(O)CC3C2)nc2n1CCC2 (single isomer, unassigned) [Example 32, N-(3-Chloro-4-fluorophenyl)-2-(5-hydroxyoctahydropentalen-2-yl)-6,7-dihydro-5H-pyrrolo[1,2-a]imidazole-3-carboxamide] | 10 to 50 nM |  |
| O=C(Nc1ccc(F)c(Cl)c1)c1c(C2CC3CC(O)CC3C2)nc2n1CCC2 (single isomer, unassigned) [Example 33, N-(3-Chloro-4-fluorophenyl)-2-(5-hydroxyoctahydropentalen-2-yl)-6,7-dihydro-5H-pyrrolo[1,2-a]imidazole-3-carboxamide] |  | < 10 nM |
| O=C(Nc1ccc(F)c(Cl)c1)c1c(C2CC3CC(O)(C(F)(F)F)CC3C2)nc2n1CCC2 (single isomer, unassigned) [Example 34, N-(3-Chloro-4-fluorophenyl)-2-(5-hydroxy-5-(trifluoromethyl)octahydropentalen-2-yl)-6,7-dihydro-5H-pyrrolo[1,2-a]imidazole-3-carboxamide] | 10 to 50 nM |  |
| CS(=O)(=O)CC1(O)CC2CC(c3nc4n(c3C(=O)Nc3ccc(F)c(Cl)c3)CCC4)CC2C1 (single isomer, unassigned) [Example 35, N-(3-Chloro-4-fluorophenyl)-2-(5-hydroxy-5-((methylsulfonyl)methyl)octahydropentalen-2-yl)-6,7-dihydro-5H-pyrrolo[1,2-a]imidazole-3-carboxamide] | < 10 nM |  |
| Cn1cnc(C2CC3CC(NC4CC4)CC3C2)c1C(=O)Nc1ccc(F)c(Cl)c1 (single isomer, unassigned) [Example 44, 5-[-5-(Cyclopropylamino)-1,2,3,3a,4,5,6,6a-octahydropentalen-2-yl]-N-(3-chloro-4-fluorophenyl)-3-methyl-4-imidazolecarboxamide] | 10 to 50 nM |  |
| Cn1cnc(C2CC3CC(NC4CC4)CC3C2)c1C(=O)Nc1ccc(F)c(Cl)c1 (single isomer, unassigned) [Example 45, 5-[-5-(Cyclopropylamino)-1,2,3,3a,4,5,6,6a-octahydropentalen-2-yl]-N-(3-chloro-4-fluorophenyl)-3-methyl-4-imidazolecarboxamide] |  | 10 to 50 nM |
| Cn1cnc(C2CC3CC(O)(c4cc([N+](=O)[O-])nn4C)CC3C2)c1C(=O)Nc1ccc(F)c(Cl)c1 (single isomer, unassigned) [Example 50, N-(3-Chloro-4-fluorophenyl)-4-(5-hydroxy-5-(1-methyl-3-nitro-1H-pyrazol-5-yl)octahydropentalen-2-yl)-1-methyl-1H-imidazole-5-carboxamide] | < 10 nM |  |
| CC(CO)Oc1cc(C2(O)CC3CC(c4ncn(C)c4C(=O)Nc4ccc(F)c(Cl)c4)CC3C2)n(C)n1 (single isomer, unassigned) [Example 68, N-(3-Chloro-4-fluorophenyl)-4-(5-hydroxy-5-(3-((1-hydroxypropan-2-yl)oxy)-1-methyl-1H-pyrazol-5-yl)octahydropentalen-2-yl)-1-methyl-1H-imidazole-5-carboxamide] | < 10 nM |  |
| CC(CO)Oc1cc(C2(O)CC3CC(c4ncn(C)c4C(=O)Nc4ccc(F)c(Cl)c4)CC3C2)n(C)n1 (single isomer, unassigned) [Example 69, N-(3-Chloro-4-fluorophenyl)-4-(5-hydroxy-5-(3-((1-hydroxypropan-2-yl)oxy)-1-methyl-1H-pyrazol-5-yl)octahydropentalen-2-yl)-1-methyl-1H-imidazole-5-carboxamide] |  | 10 to 50 nM |
| CN(C)Cc1cnn(C)c1C1(O)CC2CC(c3ncn(C)c3C(=O)Nc3ccc(F)c(Cl)c3)CC2C1 (single isomer, unassigned) [Example 70, N-(3-Chloro-4-fluorophenyl)-4-(5-(4-((dimethylamino)methyl)-1-methyl-1H-pyrazol-5-yl)-5-hydroxyoctahydropentalen-2-yl)-1-methyl-1H-imidazole-5-carboxamide] | < 10 nM |  |
| Cc1cc(C2(O)CC3CC(c4ncn(C)c4C(=O)Nc4ccc(F)c(Cl)c4)CC3C2)n(C)n1 (single isomer, unassigned) [Example 71, N-(3-Chloro-4-fluorophenyl)-4-(5-(1,3-dimethyl-1H-pyrazol-5-yl)-5-hydroxyoctahydropentalen-2-yl)-1-methyl-1H-imidazole-5-carboxamide] | < 10 nM |  |
| Cn1cnc(C2CC3CC(O)(c4cc(C(F)(F)F)nn4C)CC3C2)c1C(=O)Nc1ccc(F)c(Cl)c1 (single isomer, unassigned) [Example 72, N-(3-Chloro-4-fluorophenyl)-4-(5-hydroxy-5-(1-methyl-3-(trifluoromethyl)-1H-pyrazol-5-yl)octahydropentalen-2-yl)-1-methyl-1H-imidazole-5-carboxamide] | < 10 nM |  |
